Experimental data as given in PMC9817970 (Cancers, 2022).

Tests used:
Assay in all cases: Kinase panel profiling
Assay type in all cases: biochemical
Conditions in all cases: 10 μM ATP
MLCK2/MYLK2 = target: T1, MLCK2/MYLK2 (Homo sapiens, UniProt Q9H1R3)
T1 construct: purchased Reaction Biology Corp
Description: (§1) Kinase panel profiling was conducted by Reaction Biology Corp. (San Diego, CA, USA). A single dose (1.0 μM) of 6r was tested against 371 recombinant human kinases in the presence of 10 μM ATP.

TAOK1 = target: T2, TAOK1 (Homo sapiens, UniProt Q7L7X3)
T2 construct: purchased Reaction Biology Corp
Description: as §1

GCK/MAP4K2 = target: T3, GCK/MAP4K2 (Homo sapiens, UniProt Q12851)
T3 construct: purchased Reaction Biology Corp
Description: as §1

MLK3/MAP3K11 = target: T4, MLK3/MAP3K11 (Homo sapiens, UniProt Q16584)
T4 construct: purchased Reaction Biology Corp
Description: as §1

PKMYT1 = target: T5, PKMYT1 (Homo sapiens, UniProt Q99640)
T5 construct: purchased Reaction Biology Corp
Description: as §1

CDK7/cyclin H = target: T6, CDK7/cyclin H (Homo sapiens, UniProt P50613)
T6 construct: purchased Reaction Biology Corp
Description: as §1

PIM3 = target: T7, PIM3 (Homo sapiens, UniProt Q86V86)
T7 construct: purchased Reaction Biology Corp
Description: as §1

CK1d = target: T8, CK1d (Homo sapiens, UniProt P48730)
T8 construct: purchased Reaction Biology Corp
Description: as §1

IR = target: T9, IR (Homo sapiens, UniProt P06213)
T9 construct: purchased Reaction Biology Corp
Description: as §1

CLK2 = target: T10, CLK2 (Homo sapiens, UniProt P49760)
T10 construct: purchased Reaction Biology Corp
Description: as §1

c-MET = target: T11, c-MET (Homo sapiens, UniProt P08581)
T11 construct: purchased Reaction Biology Corp
Description: as §1

TRKC = target: T12, TRKC (Homo sapiens, UniProt Q16288)
T12 construct: purchased Reaction Biology Corp
Description: as §1

TSSK3/STK22C = target: T13, TSSK3/STK22C (Homo sapiens, UniProt Q96PN8)
T13 construct: purchased Reaction Biology Corp
Description: as §1

TESK2 = target: T14, TESK2 (Homo sapiens, UniProt Q96S53)
T14 construct: purchased Reaction Biology Corp
Description: as §1

ZAK/MLTK = target: T15, ZAK/MLTK (Homo sapiens, UniProt Q9NYL2)
T15 construct: purchased Reaction Biology Corp
Description: as §1

PKCmu/PRKD1 = target: T16, PKCmu/PRKD1 (Homo sapiens, UniProt Q15139)
T16 construct: purchased Reaction Biology Corp
Description: as §1

CDK1/cyclin A = target: T17, CDK1/cyclin A (Homo sapiens, UniProt P06493)
T17 construct: purchased Reaction Biology Corp
Description: as §1

CAMK2d = target: T18, CAMK2d (Homo sapiens, UniProt Q13557)
T18 construct: purchased Reaction Biology Corp
Description: as §1

MST4 = target: T19, MST4 (Homo sapiens, UniProt Q9P289)
T19 construct: purchased Reaction Biology Corp
Description: as §1

PAK1 = target: T20, PAK1 (Homo sapiens, UniProt Q13153)
T20 construct: purchased Reaction Biology Corp
Description: as §1

P38a/MAPK14 = target: T21, P38a/MAPK14 (Homo sapiens, UniProt Q16539)
T21 construct: purchased Reaction Biology Corp
Description: as §1

CAMK1b = target: T22, CAMK1b (Homo sapiens, UniProt Q6P2M8)
T22 construct: purchased Reaction Biology Corp
Description: as §1

DLK/MAP3K12 = target: T23, DLK/MAP3K12 (Homo sapiens, UniProt Q12852)
T23 construct: purchased Reaction Biology Corp
Description: as §1

MNK2 = target: T24, MNK2 (Homo sapiens, UniProt Q9HBH9)
T24 construct: purchased Reaction Biology Corp
Description: as §1

PKCa = target: T25, PKCa (Homo sapiens, UniProt P17252)
T25 construct: purchased Reaction Biology Corp
Description: as §1

NEK11 = target: T26, NEK11 (Homo sapiens, UniProt Q8NG66)
T26 construct: purchased Reaction Biology Corp
Description: as §1

GSK3b = target: T27, GSK3b (Homo sapiens, UniProt P49841)
T27 construct: purchased Reaction Biology Corp
Description: as §1

SSTK/TSSK6 = target: T28, SSTK/TSSK6 (Homo sapiens, UniProt Q9BXA6)
T28 construct: purchased Reaction Biology Corp
Description: as §1

TYK2 = target: T29, TYK2 (Homo sapiens, UniProt P29597)
T29 construct: purchased Reaction Biology Corp
Description: as §1

CK1a1L = target: T30, CK1a1L (Homo sapiens, UniProt Q8N752)
T30 construct: purchased Reaction Biology Corp
Description: as §1

STK39/STLK3 = target: T31, STK39/STLK3 (Homo sapiens, UniProt Q9UEW8)
T31 construct: purchased Reaction Biology Corp
Description: as §1

PDK1/PDPK1 = target: T32, PDK1/PDPK1 (Homo sapiens, UniProt O15530)
T32 construct: purchased Reaction Biology Corp
Description: as §1

WNK2 = target: T33, WNK2 (Homo sapiens, UniProt Q9Y3S1)
T33 construct: purchased Reaction Biology Corp
Description: as §1

CDK14/cyclin Y (PFTK1) = target: T34, CDK14/cyclin Y (PFTK1) (Homo sapiens, UniProt O94921)
T34 construct: purchased Reaction Biology Corp
Description: as §1

WNK3 = target: T35, WNK3 (Homo sapiens, UniProt Q9BYP7)
T35 construct: purchased Reaction Biology Corp
Description: as §1

MEK2 = target: T36, MEK2 (Homo sapiens, UniProt P36507)
T36 construct: purchased Reaction Biology Corp
Description: as §1

PKN3/PRK3 = target: T37, PKN3/PRK3 (Homo sapiens, UniProt Q6P5Z2)
T37 construct: purchased Reaction Biology Corp
Description: as §1

LRRK2 = target: T38, LRRK2 (Homo sapiens, UniProt Q5S007)
T38 construct: purchased Reaction Biology Corp
Description: as §1

PKCd = target: T39, PKCd (Homo sapiens, UniProt Q05655)
T39 construct: purchased Reaction Biology Corp
Description: as §1

AURORA C = target: T40, AURORA C (Homo sapiens, UniProt Q9UQB9)
T40 construct: purchased Reaction Biology Corp
Description: as §1

SIK2 = target: T41, SIK2 (Homo sapiens, UniProt Q9H0K1)
T41 construct: purchased Reaction Biology Corp
Description: as §1

MKK4 = target: T42, MKK4 (Homo sapiens, UniProt P45985)
T42 construct: purchased Reaction Biology Corp
Description: as §1

T24 sequence (Q9HBH9 whole entry): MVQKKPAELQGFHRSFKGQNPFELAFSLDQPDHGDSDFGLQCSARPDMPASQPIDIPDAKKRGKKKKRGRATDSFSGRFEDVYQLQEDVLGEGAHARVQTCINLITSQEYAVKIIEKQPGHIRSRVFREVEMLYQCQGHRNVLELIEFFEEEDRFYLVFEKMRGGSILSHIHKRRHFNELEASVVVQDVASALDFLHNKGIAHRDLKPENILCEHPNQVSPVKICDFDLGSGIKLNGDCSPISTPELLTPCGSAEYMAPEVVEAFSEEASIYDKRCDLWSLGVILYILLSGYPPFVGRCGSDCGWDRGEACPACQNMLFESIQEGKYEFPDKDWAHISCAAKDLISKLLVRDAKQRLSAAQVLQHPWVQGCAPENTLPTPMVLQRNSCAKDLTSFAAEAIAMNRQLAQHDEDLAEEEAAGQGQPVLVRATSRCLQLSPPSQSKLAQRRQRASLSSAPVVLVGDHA
T36 sequence (P36507 whole entry): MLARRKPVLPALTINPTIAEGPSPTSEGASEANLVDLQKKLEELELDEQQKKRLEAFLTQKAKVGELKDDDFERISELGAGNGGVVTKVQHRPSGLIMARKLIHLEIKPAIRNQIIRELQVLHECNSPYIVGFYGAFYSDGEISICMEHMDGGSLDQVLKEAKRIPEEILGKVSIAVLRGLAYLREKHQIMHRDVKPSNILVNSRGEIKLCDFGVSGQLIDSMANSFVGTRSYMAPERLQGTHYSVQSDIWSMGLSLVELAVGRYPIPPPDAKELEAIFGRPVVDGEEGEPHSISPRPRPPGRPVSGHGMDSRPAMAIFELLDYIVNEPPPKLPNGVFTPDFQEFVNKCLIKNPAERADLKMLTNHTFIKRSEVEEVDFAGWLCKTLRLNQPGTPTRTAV
T4 sequence (Q16584 whole entry): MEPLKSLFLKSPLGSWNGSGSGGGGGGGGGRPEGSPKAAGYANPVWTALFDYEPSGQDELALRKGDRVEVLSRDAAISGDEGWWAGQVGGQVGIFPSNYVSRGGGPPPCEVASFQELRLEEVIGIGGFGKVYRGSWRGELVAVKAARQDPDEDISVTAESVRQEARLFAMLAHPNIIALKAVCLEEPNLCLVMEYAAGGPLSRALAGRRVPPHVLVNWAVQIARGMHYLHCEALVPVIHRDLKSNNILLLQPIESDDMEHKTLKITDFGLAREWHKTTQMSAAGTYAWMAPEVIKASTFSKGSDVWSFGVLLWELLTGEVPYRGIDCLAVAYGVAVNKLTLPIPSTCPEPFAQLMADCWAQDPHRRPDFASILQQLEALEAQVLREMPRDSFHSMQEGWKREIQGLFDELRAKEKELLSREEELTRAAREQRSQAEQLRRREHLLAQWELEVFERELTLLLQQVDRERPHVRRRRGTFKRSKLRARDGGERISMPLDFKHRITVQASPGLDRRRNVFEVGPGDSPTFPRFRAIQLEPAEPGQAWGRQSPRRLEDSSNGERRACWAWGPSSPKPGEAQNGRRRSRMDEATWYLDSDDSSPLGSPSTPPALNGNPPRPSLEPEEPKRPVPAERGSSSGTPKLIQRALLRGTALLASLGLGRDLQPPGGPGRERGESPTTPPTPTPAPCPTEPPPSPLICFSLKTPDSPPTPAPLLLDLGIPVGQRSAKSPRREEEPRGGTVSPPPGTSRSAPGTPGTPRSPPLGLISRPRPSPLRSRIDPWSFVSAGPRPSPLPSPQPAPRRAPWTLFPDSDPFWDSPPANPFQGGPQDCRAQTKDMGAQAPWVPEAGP
T17 sequence (P06493 whole entry): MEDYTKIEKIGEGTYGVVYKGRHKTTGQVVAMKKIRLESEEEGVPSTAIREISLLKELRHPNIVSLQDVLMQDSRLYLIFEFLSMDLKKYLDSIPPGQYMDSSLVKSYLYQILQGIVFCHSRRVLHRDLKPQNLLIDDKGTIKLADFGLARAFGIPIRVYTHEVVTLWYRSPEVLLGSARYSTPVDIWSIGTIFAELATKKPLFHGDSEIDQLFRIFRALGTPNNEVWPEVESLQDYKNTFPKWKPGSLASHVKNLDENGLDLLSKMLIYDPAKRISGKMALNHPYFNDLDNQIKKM
T17 sequence (P20248 whole entry partner): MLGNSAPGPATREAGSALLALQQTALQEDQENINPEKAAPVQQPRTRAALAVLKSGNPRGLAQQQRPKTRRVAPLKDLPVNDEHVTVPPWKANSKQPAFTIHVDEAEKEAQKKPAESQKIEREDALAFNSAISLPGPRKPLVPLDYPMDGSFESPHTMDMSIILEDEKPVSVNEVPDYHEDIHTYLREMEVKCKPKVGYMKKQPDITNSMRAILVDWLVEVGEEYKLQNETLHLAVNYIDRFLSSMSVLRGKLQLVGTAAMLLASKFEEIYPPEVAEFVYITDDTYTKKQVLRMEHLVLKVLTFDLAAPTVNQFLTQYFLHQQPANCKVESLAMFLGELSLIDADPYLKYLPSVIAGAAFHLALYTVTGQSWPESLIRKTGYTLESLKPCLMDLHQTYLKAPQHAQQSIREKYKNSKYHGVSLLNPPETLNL
T34 sequence (O94921 whole entry): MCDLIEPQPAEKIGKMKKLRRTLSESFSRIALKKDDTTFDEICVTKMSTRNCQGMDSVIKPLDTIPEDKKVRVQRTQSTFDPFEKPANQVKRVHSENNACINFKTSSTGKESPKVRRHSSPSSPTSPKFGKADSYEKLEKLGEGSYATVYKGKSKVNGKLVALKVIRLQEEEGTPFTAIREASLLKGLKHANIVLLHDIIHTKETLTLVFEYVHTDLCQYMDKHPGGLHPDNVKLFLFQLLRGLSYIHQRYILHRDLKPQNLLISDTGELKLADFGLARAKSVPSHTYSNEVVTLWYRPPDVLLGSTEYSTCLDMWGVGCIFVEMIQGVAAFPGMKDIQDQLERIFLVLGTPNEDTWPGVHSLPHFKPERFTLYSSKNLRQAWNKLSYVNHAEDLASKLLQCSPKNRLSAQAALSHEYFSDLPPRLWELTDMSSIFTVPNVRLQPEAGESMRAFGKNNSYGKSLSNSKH
T34 sequence (Q8ND76 whole entry partner): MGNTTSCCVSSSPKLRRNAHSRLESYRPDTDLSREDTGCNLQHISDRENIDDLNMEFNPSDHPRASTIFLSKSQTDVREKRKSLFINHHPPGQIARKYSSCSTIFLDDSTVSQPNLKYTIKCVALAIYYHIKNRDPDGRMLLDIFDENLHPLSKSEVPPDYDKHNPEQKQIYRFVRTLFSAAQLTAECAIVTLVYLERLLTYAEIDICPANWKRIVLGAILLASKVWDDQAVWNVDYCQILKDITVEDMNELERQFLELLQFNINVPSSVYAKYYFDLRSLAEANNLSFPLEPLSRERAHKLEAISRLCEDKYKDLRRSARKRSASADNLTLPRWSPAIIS
T9 sequence (P06213 28-1382): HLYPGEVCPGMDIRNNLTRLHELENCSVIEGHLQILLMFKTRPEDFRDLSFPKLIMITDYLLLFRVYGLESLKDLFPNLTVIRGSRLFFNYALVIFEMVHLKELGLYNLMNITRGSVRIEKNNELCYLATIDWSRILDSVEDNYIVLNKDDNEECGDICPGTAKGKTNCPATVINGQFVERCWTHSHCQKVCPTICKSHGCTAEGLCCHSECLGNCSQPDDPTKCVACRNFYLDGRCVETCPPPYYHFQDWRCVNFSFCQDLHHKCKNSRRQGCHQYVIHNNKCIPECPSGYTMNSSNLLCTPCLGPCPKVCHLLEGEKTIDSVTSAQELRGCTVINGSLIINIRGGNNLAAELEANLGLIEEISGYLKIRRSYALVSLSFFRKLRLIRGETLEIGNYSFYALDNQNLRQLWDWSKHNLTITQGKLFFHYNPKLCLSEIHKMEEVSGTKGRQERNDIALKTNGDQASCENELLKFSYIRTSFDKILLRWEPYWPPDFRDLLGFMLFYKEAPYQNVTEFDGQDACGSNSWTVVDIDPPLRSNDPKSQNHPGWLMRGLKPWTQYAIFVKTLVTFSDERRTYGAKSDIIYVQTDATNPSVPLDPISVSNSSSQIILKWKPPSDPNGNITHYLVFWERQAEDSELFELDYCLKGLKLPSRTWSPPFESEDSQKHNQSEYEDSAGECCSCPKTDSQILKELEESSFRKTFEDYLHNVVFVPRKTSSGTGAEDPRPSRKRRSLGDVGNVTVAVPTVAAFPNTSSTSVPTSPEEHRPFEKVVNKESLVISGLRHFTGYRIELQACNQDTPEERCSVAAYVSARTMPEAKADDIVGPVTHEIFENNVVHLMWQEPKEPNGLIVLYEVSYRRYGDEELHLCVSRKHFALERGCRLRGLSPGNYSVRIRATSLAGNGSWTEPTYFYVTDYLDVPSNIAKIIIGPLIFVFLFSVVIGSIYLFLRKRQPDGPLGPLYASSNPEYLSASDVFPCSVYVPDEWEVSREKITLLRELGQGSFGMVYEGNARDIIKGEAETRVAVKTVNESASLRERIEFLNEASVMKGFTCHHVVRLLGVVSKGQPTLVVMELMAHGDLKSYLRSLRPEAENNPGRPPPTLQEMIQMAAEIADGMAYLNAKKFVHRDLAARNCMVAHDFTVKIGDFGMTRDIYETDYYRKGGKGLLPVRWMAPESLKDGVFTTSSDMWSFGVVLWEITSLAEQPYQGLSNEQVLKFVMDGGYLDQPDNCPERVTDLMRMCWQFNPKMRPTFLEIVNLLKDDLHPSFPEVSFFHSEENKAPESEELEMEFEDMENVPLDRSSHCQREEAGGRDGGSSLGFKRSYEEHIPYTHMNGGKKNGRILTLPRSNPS
T21 sequence (Q16539 whole entry): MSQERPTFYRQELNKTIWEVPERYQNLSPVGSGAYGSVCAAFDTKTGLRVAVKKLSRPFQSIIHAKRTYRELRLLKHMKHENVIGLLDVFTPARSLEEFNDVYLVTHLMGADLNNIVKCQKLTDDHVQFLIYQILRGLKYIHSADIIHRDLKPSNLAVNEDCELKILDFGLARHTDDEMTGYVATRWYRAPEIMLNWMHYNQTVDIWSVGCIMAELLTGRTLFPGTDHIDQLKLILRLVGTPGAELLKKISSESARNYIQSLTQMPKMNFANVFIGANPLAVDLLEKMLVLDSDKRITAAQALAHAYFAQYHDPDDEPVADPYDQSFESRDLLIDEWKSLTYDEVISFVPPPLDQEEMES

Work on Cc1ccc(NC(=O)c2ccc(CN3CCN(C)CC3)c(C(F)(F)F)c2)cc1-c1cnc2sc(N)nc2c1 [6r] yielded an inhibition at 1 µM (MLCK2/MYLK2) of 4.8%, an inhibition at 1 µM (TAOK1) of 6.1% and an inhibition at 1 µM (GCK/MAP4K2) of 21.8%. It also gave an inhibition at 1 µM (MLK3/MAP3K11) of 23.7%, an inhibition at 1 µM (PKMYT1) of 10% and an inhibition at 1 µM (CDK7/cyclin H) of 3.2%. It also gave an inhibition at 1 µM (PIM3) of 3.4%, an inhibition at 1 µM (CK1d) of 27.3% and an inhibition at 1 µM (IR) of 1.9%. It also gave an inhibition at 1 µM (CLK2) of 38.7%, an inhibition at 1 µM (c-MET) of 2.7% and an inhibition at 1 µM (TRKC) of 13.6%. The inhibition at 1 µM (TSSK3/STK22C) was 0%, the inhibition at 1 µM (TESK2) was 15.1% and the inhibition at 1 µM (ZAK/MLTK) was 50%. The inhibition at 1 µM (PKCmu/PRKD1) was 15.9%, the inhibition at 1 µM (CDK1/cyclin A) was 3.8% and the inhibition at 1 µM (CAMK2d) was 0%. It also gave an inhibition at 1 µM (MST4) of 15.7%, an inhibition at 1 µM (PAK1) of 6.9% and an inhibition at 1 µM (P38a/MAPK14) of 96.5%. For the same compound, the inhibition at 1 µM (CAMK1b) was 5.4%, the inhibition at 1 µM (DLK/MAP3K12) was 0% and the inhibition at 1 µM (MNK2) was 0%. For the same compound, the inhibition at 1 µM (PKCa) was 4.2%, the inhibition at 1 µM (NEK11) was 18.3% and the inhibition at 1 µM (GSK3b) was 12.9%. The inhibition at 1 µM (SSTK/TSSK6) was 0%, the inhibition at 1 µM (TYK2) was 7.8% and the inhibition at 1 µM (CK1a1L) was 8.5%. The inhibition at 1 µM (STK39/STLK3) was 19.2%, the inhibition at 1 µM (PDK1/PDPK1) was 7.2% and the inhibition at 1 µM (WNK2) was 8.7%. It also gave an inhibition at 1 µM (CDK14/cyclin Y (PFTK1)) of 0%, an inhibition at 1 µM (WNK3) of 7.1% and an inhibition at 1 µM (MEK2) of 7.1%. It also gave an inhibition at 1 µM (PKN3/PRK3) of 8.6%, an inhibition at 1 µM (LRRK2) of 5.1% and an inhibition at 1 µM (PKCd) of 10.1%. For the same compound, the inhibition at 1 µM (AURORA C) was 4.9%, the inhibition at 1 µM (SIK2) was 5.6% and the inhibition at 1 µM (MKK4) was 6%.
